Experimental findings from patent publication US20170121344A1 (Siga Technologies, Inc., priority 2009, published 2017) are described below.

Read-outs that look alike come from different tables or passages of the source.

In this assay the test system is Dengue-2 (Strain New Guinea C). The assay is described as follows: Viral yield assay against Dengue-2 in Vero cells. The class given is cell-based, Dengue virus. The settings on record: Dengue virus. An outline of the steps:
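Vero cells were infected with dengue virus at an MOI of 0.1, treated with compound or DMSO vehicle, and kept at 37° C. Supernatant virus was harvested 48 hours post infection and titered on Vero cells, with EC50 derived from yield reduction.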

[1] abbreviates: Vero, 48 h, read-out: Activity (EC50 class) against Dengue-2 Virus in Vero cells.
Where [2] appears, read: DENV2, viral yield assay, Vero cells, MOI 0.1, 48 hours post infection, read-out: Activity (EC50 in μM) DENV-2.
Setting [3] is: Vero cells, MOI 0.1, harvested 48 hours post infection, read-out: Activity (EC50 class) against Dengue-2 Virus in Vero cells.
[4] abbreviates: DENV2, Vero, 48 h, read-out: Activity (EC50 in μM) DENV-2.

With `Cc1nc2sc(C(N)=O)c(N)c2c(C)c1CC(=O)c1ccccc1` [Compound 72, 3-Amino-4,6-dimethyl-5-(2-oxo-2-phenyl-ethyl)-thieno[2,3-b]pyridine-2-carboxylic acid amide], the EC50 under setting [1] fell in the range of 5 to 25 µM.

As to `COc1ccc(-c2ccc3c(N)c(C(=O)Nc4ccccc4)sc3n2)cc1OC` [Compound 634, 3-amino-6-(3,4-dimethoxyphenyl)-N-phenyl-thieno[2,3-b]pyridine-2-carboxamide], the EC50 under setting [2] was below 5 µM.

For the compound `Cc1cc(C)c2c(N)c(C(=O)Nc3ccc(S(N)(=O)=O)cc3)sc2n1` [Compound 183, 3-Amino-4,6-dimethyl-thieno[2,3-b]pyridine-2-carboxylic acid (4-sulfamoyl-phenyl)-amide], the EC50 under setting [3] was above 25 µM.

Turning to `Nc1c(C(=O)Nc2ccc(Br)cc2)sc2nc(-c3cccnc3)ccc12` [Compound 435, 3-amino-N-(4-bromophenyl)-6-(3-pyridyl)thieno[2,3-b]pyridine-2-carboxamide], the EC50 under setting [2] is below 5 µM.

Turning to `COc1ccc(OC)c(CN2CCN(C(=O)c3sc4nc(C)cc(C)c4c3C)CC2)c1` [Compound 407, [4-[(2,5-dimethoxyphenyl)methyl)piperazin-1-yl]-(3,4,6-trimethylthieno [2,3-b]pyridin-2-yl)methanone], the EC50 under setting [2] is above 25 µM.

As for `Cc1cccc(NC(=O)c2sc3nc4c(cc3c2N)CCC4)c1C` [Compound 179, 3-Amino-6,7-dihydro-5H-cyclopenta[b]thieno[3,2-e]pyridine-2-carboxylic acid (2,3-dimethyl-phenyl)-amide], under setting [1], the concentration for a half-maximal effect (EC50) was above 25 µM.

Regarding `COc1ccc(-c2ccc3c(N)c(C(=O)Nc4ccc5c(c4)OCO5)sc3n2)cc1OC` [Compound 580, 3-amino-N-(1,3-benzodioxol-5-yl)-6-(3,4-dimethoxyphenyl)thieno[2,3-b] pyridine-2-carboxamide], the EC50 under setting [4] is below 5 µM.

Turning to `COc1ccc(-c2ccc3c(N)c(C(=O)Nc4ccc(F)cc4)sc3n2)cc1OC` [Compound 541, 3-amino-6-(3,4-dimethoxyphenyl)-N-(4-fluorophenyl)thieno[2,3-b]pyridine-2-carboxamide], under setting [4], the EC50 was below 5 µM.

As to `Nc1c(C(=O)Nc2ccccc2OC(F)(F)F)sc2nc3c(cc12)CCCCC3` [Compound 371, 3-amino-N-(2-(trifluoromethoxy)phenyl)-6,7,8,9-tetrahydro-5H-cyclohepta[b]thieno [3,2-e]pyridine-2-carboxamide], the EC50 under setting [2] was below 5 µM.

In the case of `COc1ccccc1NC(=O)c1sc2nc(N3CCOCC3)c3c(c2c1N)CC(C)(C)OC3` [Compound 247, 1-Amino-8,8-dimethyl-5-morpholin-4-yl-8,9-dihydro-6H-7-oxa-3-thia-4-aza-cyclopenta[a]naphthalene-2-carboxylic acid (2-methoxy-phenyl)-amide], under setting [3], the EC50 was above 25 µM.

For `Nc1c(C(=O)Nc2cccc(C(F)(F)F)c2)sc2nc(-c3ccncc3)ccc12` [Compound 440, 3-amino-6-(4-pyridyl)-N-[3-(trifluoromethyl)phenyl]thieno[2,3-b] pyridine-2-carboxamide], under setting [2], the EC50 lay within 5 to 25 µM.

On to `Cc1cc(C)c2c(C)c(C(=O)N3c4ccccc4CC3C)sc2n1` (stereo not shown) [Compound 398, (2-methylindolin-1-yl)-(3,4,6-trimethyl-thieno[2,3-b]pyridin-2-yl)methanone], for which the EC50 under setting [2] fell in the range of 5 to 25 µM.

For `COc1ccc(-c2ccc3c(N)c(C(=O)Nc4ccc(Br)cc4)sc3n2)cc1OC` [Compound 451, 3-amino-N-(4-bromophenyl)-6-(3,4-dimethoxyphenyl)thieno[2,3-b]pyridine-2-carboxamide], the EC50 under setting [2] was below 5 µM.

For `Cc1ccccc1NC(=O)c1sc2nc(-c3ccc(F)cc3)ccc2c1N` [Compound 610, 3-amino-6-(4-fluorophenyl)-N-(o-tolyl) thieno[2,3-b]pyridine-2-carboxamide], the EC50 under setting [2] is below 5 µM.

As to `CN1CCc2nc3sc(C(=O)Nc4ccc(N(C)C)cc4)c(N)c3cc2C1` [Compound 20, 3-Amino-6-methyl-5,6,7,8-tetrahydro-thieno[2,3-b][1,6]naphthyridine-2-carboxylic acid (4-dimethylamino-phenyl)-amide], the EC50 under setting [3] is below 5 µM.

For `CN1CCc2nc3sc(C(=O)Nc4ccccc4)c(N)c3c(-c3ccccc3)c2C1` [Compound 49, 3-Amino-6-methyl-4-phenyl-5,6,7,8-tetrahydro-thieno[2,3-b][1,6]naphthyridine-2-carboxylic acid phenylamide], the EC50 under setting [3] was below 5 µM.

Regarding `CC1(C)CC(=O)c2cc3c(N)c(C(=O)Nc4ccccc4[N+](=O)[O-])sc3nc2C1` [Compound 222, 3-Amino-7,7-dimethyl-5-oxo-5,6,7,8-tetrahydro-thieno[2,3-b]quinoline-2-carboxylic acid (2-nitro-phenyl)-amide], the EC50 under setting [3] was above 25 µM.

In the case of `Nc1c(C(=O)Nc2cc(Cl)ccc2Cl)sc2nc(-c3ccc(F)cc3)ccc12` [Compound 605, 3-amino-N-(2,5-dichlorophenyl)-6-(4-fluorophenyl)thieno[2,3-b]pyridine-2-carboxamide], the EC50 under setting [2] is below 5 µM.

On to `COc1ccccc1NC(=O)c1sc2nc3c(cc2c1N)CN(C)CC3` [Compound 58, 3-Amino-6-methyl-5,6,7,8-tetrahydro-thieno[2,3-b][1,6]naphthyridine-2-carboxylic acid (2-methoxy-phenyl)-amide], for which the EC50 under setting [3] is below 5 µM.

Regarding `COc1ccc(NC(=O)c2sc3nc(-c4ccc(F)cc4)ccc3c2N)c(C)c1` [Compound 624, 3-amio-6-(4-fluorophenyl)-N-(4-methoxy-2-methyl-phenyl)thieno[2,3-b] pyridine-2-carboxamide], under setting [2], the concentration giving a half-maximal response (EC50) was below 5 µM.

`CC(C)Cc1ccc2c(N)c(C(=O)Nc3ccccc3)sc2n1` [Compound 206, 3-Amino-6-isobutyl-thieno[2,3-b]pyridine-2-carboxylic acid phenylamide]: the EC50 under setting [1] was above 25 µM.

With `COc1ccc(-c2ccc3c(N)c(C(=O)Nc4ccc(Br)c(C)c4)sc3n2)cc1OC` [Compound 579, 3-amino-N-(4-bromo-3-methyl-phenyl)-6-(3,4-dimethoxyphenyl)thieno[2,3-b] pyridine-2-carboxamide], the EC50 under setting [2] was below 5 µM.

Regarding `Cc1csc(NC(=O)c2sc3nc4c(cc3c2N)CN(C)CC4)n1` [Compound 39, 3-Amino-6-methyl-5,6,7,8-tetrahydro-thieno[2,3-b][1,6]naphthyridine-2-carboxylic acid (4-methyl-thiazol-2-yl)-amide], the EC50 under setting [3] is below 5 µM.

`COc1cccc(-c2ccc3c(N)c(C(=O)Nc4ccc(F)cc4Cl)sc3n2)c1` [Compound 557, 3-amino-N-(2-chloro-4-fluoro-phenyl)-6-(3-methoxyphenyl)thieno[2,3-b] pyridine-2-carboxamide]: the EC50 under setting [2] was below 5 µM.

Turning to `Cc1cc(C)c2c(N)c(C(=O)NCCc3ccccc3)sc2n1` [Compound 257, 3-Amino-4,6-dimethyl-thieno[2,3-b]pyridine-2-carboxylic acid phenethyl-amide], under setting [1], the EC50 is above 25 µM.

`CN(C)CC(=O)Nc1c(C(=O)Nc2cccc(C(F)(F)F)c2)sc2nc(-c3cccs3)ccc12` [Compound 308, 3-[[2-(dimethylamino)acetyl]amino]-6-(2-thienyl)-N-[3-(trifluoromethyl)phenyl]thieno[2,3-b]pyridine-2-carboxamide]: the EC50 (DENV2, Vero cells, read-out: Activity (EC50 in μM) DENV-2) was below 5 µM.

On to `COCc1cc(C)nc2sc(C(=O)Nc3cc(Cl)ccc3Cl)c(N)c12` [Compound 211, 3-Amino-4-methoxymethyl-6-methyl-thieno[2,3-b]pyridine-2-carboxylic acid (2,5-dichloro-phenyl)-amide], for which the EC50 under setting [3] is above 25 µM.

With `Cc1ccc(NC(=O)c2sc3nc4c(cc3c2N)CN(C)CC4)cc1Cl` [Compound 45, 3-Amino-6-methyl-5,6,7,8-tetrahydro-thieno[2,3-b][1,6]naphthyridine-2-carboxylic acid (3-chloro-4-methyl-phenyl)-amide], the EC50 under setting [3] was below 5 µM.

With `CCc1c(C)nc2sc(C(N)=O)c(N)c2c1C` [Compound 160, 3-Amino-5-ethyl-4,6-dimethyl-thieno[2,3-b]pyridine-2-carboxylic acid amide], the EC50 under setting [3] is above 25 µM.

Turning to `CCc1nnc(NC(=O)c2sc3nc4c(cc3c2N)CN(C(C)C)CC4)s1` [Compound 272, 3-Amino-6-isopropyl-5,6,7,8-tetrahydro-thieno[2,3-b][1,6]naphthyridine-2-carboxylic acid (5-ethyl-[1,3,4]thiadiazol-2-yl)-amide], the EC50 under setting [3] is above 25 µM.

Take `Cc1ccc(NC(=O)c2sc3nc(C)cc(C(F)(F)F)c3c2N)nc1` [Compound 132, 3-Amino-6-methyl-4-trifluoromethyl-thieno[2,3-b]pyridine-2-carboxylic acid (5-methyl-pyridin-2-yl)-amide]: the EC50 under setting [3] is above 25 µM.

With `Nc1c(C(=O)Nc2ccccc2Br)sc2nc(-c3ccncc3)ccc12` [Compound 466, 3-amino-N-(2-bromophenyl)-6-(4-pyridyl)thieno[2,3-b]pyridine-2-carboxamide], the EC50 under setting [2] was in the range of 5 to 25 µM.

For `COc1cccc(-c2ccc3c(N)c(C(=O)Nc4ccc5c(c4)OCCO5)sc3n2)c1` [Compound 499, 3-amino-N-(2,3-dihydor-1,4-benzodioxin-6-yl)-6-(3-methoxyphenyl)thieno[2,3-b] pyridine-2-carboxamide], under setting [2], the EC50 was below 5 µM.

Turning to `COc1ccc(-c2ccc3c(N)c(C(=O)Nc4ccc(Cl)c(C(F)(F)F)c4)sc3n2)cc1OC` [Compound 585, 3-amino-N-[4-chloro-3-(trifluoromethyl)phenyl]-6-(3,4-dimethoxyphenyl)thieno [2,3-b]pyridine-2-carboxamide], the EC50 under setting [2] was below 5 µM.
